Assay results from PMC8944975, “Secretin Receptor as a Target in Gastrointestinal Cancer: Expression Analysis and Ligand Development” (Biomedicines, 2022).
Read-outs that look alike come from different tables or passages of the source. Where a SMILES comes first, the peptide text is derived from it. Where no end group is shown, it is not given here. [ ]: non-standard residue; d: D form.

Experiments:
human SCTR [1] = biological target: T1, human SCTR (Homo sapiens, UniProt P47872); assay: GloSensor cAMP assay, agonist mode; assay type: cell-based; parameters: expressed in transfected cells; conditions: for Emax: read-out: cAMP Production, Intrinsic Activity
T1 sequence (P47872 23-440): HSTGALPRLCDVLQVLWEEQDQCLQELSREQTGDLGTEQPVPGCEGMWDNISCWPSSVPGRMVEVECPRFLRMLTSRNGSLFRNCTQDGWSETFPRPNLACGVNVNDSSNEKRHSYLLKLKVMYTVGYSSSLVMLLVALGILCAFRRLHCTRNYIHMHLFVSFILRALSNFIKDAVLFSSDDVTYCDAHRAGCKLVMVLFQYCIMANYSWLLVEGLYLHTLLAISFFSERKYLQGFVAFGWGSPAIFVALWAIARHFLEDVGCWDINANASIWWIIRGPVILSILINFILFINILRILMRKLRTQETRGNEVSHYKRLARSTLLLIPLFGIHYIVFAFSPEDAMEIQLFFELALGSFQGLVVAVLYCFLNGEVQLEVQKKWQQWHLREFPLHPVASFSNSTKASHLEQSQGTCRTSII
Experimental: Analysis of downstream signaling of activated SCTR via Gαs G-protein subunits was performed by monitoring intracellular cAMP utilizing the GloSensor system (Promega, Walldorf, Germany) in accordance with the supplier protocol. Measurements were performed using the EnVision Analyzer (PerkinElmer, Rodgau, Germany). For evaluation, concentration–response curves (signal-to-noise ratios plotted) employing the derived statistical mean and SD for estimation of the respective EC50 were calculated using Spotfire Decision Site (TIBCO, Palo Alto, CA, USA). For the analysis of antagonists, a modified protocol was used. Treatment of cells and dilution of the potential antagonist was performed as previously described. Ligand dilutions were added to cells and incubated at room temperature for 5 min. Successively, secretin was added at a final concentration of 0.5 nM for an additional 15 min at room temperature. The emitted chemiluminescence, which correlates with the cAMP concentration, was detected with suitable filters. Evaluation of data was performed as previously described with a calculation of half-maximal inhibitory concentration (IC50).

human SCTR [2] = biological target: T1, human SCTR; assay: agonist-induced β-arr2-GFP translocation; assay type: cell-based; parameters: expressed in transfected cells; host or cells: U2OS (human osteosarcoma), stably co-transfected with β-arrestin2-GFP; conditions: Supplementary Tables S1 and S2, decimal comma, '-' not detectable (Figure 4); for β-arrestin2-GFP agonism efficacy: % of wild-type secretin; for EC50: U2OS-SCTR/β-arr2-GFP cells, 20 min at 37 °C, mean of at least three independent experiments in duplicates, read-out: β-arrestin2-GFP agonism potency
In short: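 U2OS cells stably co-expressing human SCTR and rat β-arrestin2-GFP, serum-starved 1 h, then given serial ligand dilutions for 20 min at 37 °C before fixation and DAPI staining.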

human SCTR [3] = biological target: T1, human SCTR; assay: β-arr2-GFP translocation assay run in antagonist mode; assay type: cell-based; parameters: expressed in transfected cells; host or cells: U2OS (human osteosarcoma), stably co-transfected with β-arrestin2-GFP; on IC50, inhibition of β-arr2-GFP translocation (Table 3): peptide 5 min at 37 °C
Excerpt: U2OS-SCTR/β-arr2-GFP: human osteosarcoma cell line U2OS (purchased from ATCC/LGC Standards, Wesel, Germany) were stably transfected with plasmids encoding SCTR (Homo sapiens) and the fusion protein β-arrestin2-green fluorescent protein (GFP) (Rattus norvegicus-Aequorea victoria) (β-arr2-GFP).
For analysis of antagonistic effects on SCTR, a slightly modified protocol of the β-arr2-GFP translocation was used. […] For analysis, cells were terminally fixed and permeabilized as previously described. The additional monitoring of IDCC fluorescence in the near-infrared channel (667 nm) provided another measure for receptor binding and activation.

[4] = biological target: human secretin receptor (SCTR) (human, UniProt P47872 23-440); assay: cell-based or functional assay
Sequence of human secretin receptor (SCTR) (P47872 23-440): as above

[5] = GloSensor cAMP assay, at least 3 independent experiments in duplicates
[6] = Supplementary Table S2, GloSensor system, at least three independent experiments in duplicates, decimal comma, read-out: cAMP agonism potency
[7] = read-out: IC50, inhibition of β-arr2-GFP translocation (Table 2)

For CC(C)C[C@H](NC(=O)CNC(=O)[C@H](C)NC(=O)[C@H](CC(C)C)NC(=O)[C@H](CC(C)C)NC(=O)[C@H](CCCNC(=N)N)NC(=O)[C@H](CCC(N)=O)NC(=O)[C@H](CC(C)C)NC(=O)[C@H](CCCNC(=N)N)NC(=O)[C@H](C)NC(=O)CNC(=O)[C@H](CCC(=O)O)NC(=O)[C@H](CCCNC(=N)N)NC(=O)[C@H](CC(C)C)NC(=O)[C@H](CCCNC(=N)N)NC(=O)[C@H](CO)NC(=O)[C@H](CC(C)C)NC(=O)[C@H](CCC(=O)O)NC(=O)[C@H](CO)NC(=O)[C@@H](NC(=O)[C@H](Cc1ccccc1)NC(=O)[C@H](N)CCCNC(=N)N)[C@@H](C)O)C(=O)N[C@H](C(=O)O)C(C)C [Peptide 143], the Emax (human SCTR [1]; [5]) was 27.5 ± 8.8%.

In the case of CC(C)C[C@H](NC(=O)[C@H](C)NC(=O)[C@H](CCC(N)=O)NC(=O)[C@H](CC(C)C)NC(=O)[C@H](CC(C)C)NC(=O)[C@H](CCCNC(=N)N)NC(=O)[C@H](CCC(N)=O)NC(=O)[C@H](CC(C)C)NC(=O)[C@H](CCCNC(=N)N)NC(=O)[C@H](C)NC(=O)CNC(=O)[C@H](CCC(=O)O)NC(=O)[C@H](CCCNC(=N)N)NC(=O)[C@H](CC(C)C)NC(=O)[C@H](CCCNC(=N)N)NC(=O)[C@H](CO)NC(=O)[C@H](CC(C)C)NC(=O)[C@H](CCC(=O)O)NC(=O)[C@H](CO)NC(=O)[C@@H](NC(=O)[C@H](Cc1ccccc1)NC(=O)[C@H](N)CCCNC(=N)N)[C@@H](C)O)C(=O)N[C@H](C(=O)O)C(C)C [Peptide 144], the Emax (human SCTR [1]; [5]) is reported as 31.1 ± 2.2%.

In the case of HSDGTFTSELSRLREGARLQ [Peptide 103], the EC50 (human SCTR [1]; [6]) is reported as 875 nM.

In the case of HSDGTFTSELSRLREGARLQRLLQ [Peptide 99], the EC50 (human SCTR [1]; [6]) is reported as 2.09 nM, the β-arrestin2-GFP agonism efficacy (human SCTR [2]) is reported as 103,60 % Sec and the EC50 (human SCTR [2]) is reported as 35.9 nM.

CC(C)C[C@H](NC(=O)CNC(=O)[C@H](CCC(N)=O)NC(=O)[C@H](CC(C)C)NC(=O)[C@H](CC(C)C)NC(=O)[C@H](CCCNC(=N)N)NC(=O)[C@H](CCC(N)=O)NC(=O)[C@H](CC(C)C)NC(=O)[C@H](CCCNC(=N)N)NC(=O)[C@H](C)NC(=O)CNC(=O)[C@H](CCC(=O)O)NC(=O)[C@H](CCCNC(=N)N)NC(=O)[C@H](CC(C)C)NC(=O)[C@H](CCCNC(=N)N)NC(=O)[C@H](CO)NC(=O)[C@H](CC(C)C)NC(=O)[C@H](CCC(=O)O)NC(=O)[C@H](CO)NC(=O)[C@@H](NC(=O)[C@H](Cc1ccccc1)NC(=O)[C@@H](NC(=O)CNC(=O)[C@H](CC(=O)O)NC(=O)[C@@H](N)CO)[C@@H](C)O)[C@@H](C)O)C(=O)N[C@H](C(=O)O)C(C)C [Peptide 115] was tested, and the IC50 (human SCTR [3]; [7]) was 1280 ± 703 nM and the EC50 (human SCTR [1]; [6]) was 22 nM.

CC(C)C[C@H](NC(=O)CNC(=O)[C@H](CCC(N)=O)NC(=O)[C@H](CC(C)C)NC(=O)[C@H](CC(C)C)NC(=O)[C@H](CCCNC(=N)N)NC(=O)[C@H](CCC(N)=O)NC(=O)[C@H](CC(C)C)NC(=O)[C@H](CCCNC(=N)N)NC(=O)[C@H](C)NC(=O)CNC(=O)[C@H](CCC(=O)O)NC(=O)[C@H](CCCNC(=N)N)NC(=O)[C@H](CC(C)C)NC(=O)[C@H](CCCNC(=N)N)NC(=O)[C@H](CO)NC(=O)[C@H](CC(C)C)NC(=O)[C@H](CCC(=O)O)NC(=O)[C@H](CO)NC(=O)[C@@H](N)[C@@H](C)O)C(=O)N[C@H](C(N)=O)C(C)C [Peptide 120] was tested, and the IC50 (human SCTR [3]; [7]) was > 3000 nM, the IC50 (human SCTR [3]; read-out: Inhibition of β-arr2-GFP Translocation, IC50) was > 3000 nM and the Emax (human SCTR [1]; [5]) was 90.6 ± 11.5%. It also gave an EC50 (human SCTR [1]; GloSensor cAMP assay, at least 3 independent experiments in duplicates, read-out: cAMP Production, EC50) of 3370 ± 1570 nM.

In the case of CC(C)C[C@H](NC(=O)CNC(=O)[C@H](CCC(N)=O)NC(=O)[C@H](CC(C)C)NC(=O)[C@H](CC(C)C)NC(=O)[C@H](CCCNC(=N)N)NC(=O)[C@H](CCC(N)=O)NC(=O)[C@H](CC(C)C)NC(=O)[C@H](CCCNC(=N)N)NC(=O)[C@H](C)NC(=O)CNC(=O)[C@H](CCC(=O)O)NC(=O)[C@H](CCCNC(=N)N)NC(=O)[C@H](CC(C)C)NC(=O)[C@H](CCCNC(=N)N)NC(=O)[C@H](CO)NC(=O)[C@H](CC(C)C)NC(=O)[C@H](CCC(=O)O)NC(=O)[C@@H](N)CO)C(=O)N[C@H](C(=O)O)C(C)C [Peptide 121], the IC50 (human SCTR [3]; [7]) is reported as 2730 ± 60 nM and the EC50 (human SCTR [1]; [6]) is reported as > 10000 nM.

In the case of HSDGTFTSELSRLREGARLQRL [Peptide 101], the EC50 (human SCTR [1]; [6]) is reported as 57 nM.

For CC(C)C[C@H](NC(=O)CNC(=O)[C@H](CCC(N)=O)NC(=O)[C@H](CC(C)C)NC(=O)[C@H](CC(C)C)NC(=O)[C@H](CCCNC(=N)N)NC(=O)[C@H](CCC(N)=O)NC(=O)[C@H](CC(C)C)NC(=O)[C@H](CCCNC(=N)N)NC(=O)[C@H](C)NC(=O)[C@H](C)NC(=O)[C@H](CCC(=O)O)NC(=O)[C@H](CCCNC(=N)N)NC(=O)[C@H](CC(C)C)NC(=O)[C@H](CCCNC(=N)N)NC(=O)[C@H](CO)NC(=O)[C@H](CC(C)C)NC(=O)[C@H](CCC(=O)O)NC(=O)[C@H](CO)NC(=O)[C@@H](NC(=O)[C@H](Cc1ccccc1)NC(=O)[C@H](N)CCCNC(=N)N)[C@@H](C)O)C(=O)N[C@H](C(=O)O)C(C)C [Peptide 136], the Emax (human SCTR [1]; [5]) was 33.6 ± 0.9%.

With HSDGTFTSELSRLREGARLQRLLQGL [Peptide 97] the EC50 (human SCTR [1]; [6]) was 0.51 nM, the β-arrestin2-GFP agonism efficacy (human SCTR [2]) was 109,53 % Sec and the EC50 (human SCTR [2]) was 8.8 nM.

HSDGTFTSELSRLREGARLQRLLQG [Peptide 98] was tested, and the EC50 (human SCTR [1]; [6]) was 1.55 nM, the β-arrestin2-GFP agonism efficacy (human SCTR [2]) was 104,47 % Sec and the EC50 (human SCTR [2]) was 26.5 nM.

HSDGTFTSELSRLREGARLQRLL [Peptide 100] was tested, and the EC50 (human SCTR [1]; [6]) was 7.63 nM, the β-arrestin2-GFP agonism efficacy (human SCTR [2]) was 92,23 % Sec and the EC50 (human SCTR [2]) was 131 nM.

Molecule CC(C)C[C@H](NC(=O)CNC(=O)[C@H](CCC(N)=O)NC(=O)[C@H](CC(C)C)NC(=O)[C@H](CC(C)C)NC(=O)[C@H](CCCNC(=N)N)NC(=O)[C@H](CCC(N)=O)NC(=O)[C@H](CC(C)C)NC(=O)[C@H](CCCNC(=N)N)NC(=O)[C@H](C)NC(=O)CNC(=O)[C@H](CCC(=O)O)NC(=O)[C@H](CCCNC(=N)N)NC(=O)[C@H](CC(C)C)NC(=O)[C@H](CCCNC(=N)N)NC(=O)[C@H](CO)NC(=O)[C@H](CC(C)C)NC(=O)[C@H](CCC(=O)O)NC(=O)[C@H](CO)NC(=O)[C@@H](NC(=O)[C@H](Cc1ccccc1)NC(=O)[C@@H](NC(=O)CN)[C@@H](C)O)[C@@H](C)O)C(=O)N[C@H](C(=O)O)C(C)C [Peptide 117] has an IC50 (human SCTR [3]; [7]) of 1920 ± 355 nM and an EC50 (human SCTR [1]; [6]) of 166 nM.

With HSDGTFTSELSRLREGARLQR [Peptide 102] the EC50 (human SCTR [1]; [6]) was 586 nM.

Work on CC(C)C[C@H](NC(=O)CNC(=O)[C@H](CCC(N)=O)NC(=O)[C@H](CC(C)C)NC(=O)[C@H](CC(C)C)NC(=O)[C@H](CCCNC(=N)N)NC(=O)[C@H](CCC(N)=O)NC(=O)[C@H](CC(C)C)NC(=O)[C@H](CCCNC(=N)N)NC(=O)[C@H](C)NC(=O)CNC(=O)[C@H](CCC(=O)O)NC(=O)[C@H](C)NC(=O)[C@H](CC(C)C)NC(=O)[C@H](CCCNC(=N)N)NC(=O)[C@H](CO)NC(=O)[C@H](CC(C)C)NC(=O)[C@H](CCC(=O)O)NC(=O)[C@H](CO)NC(=O)[C@@H](NC(=O)[C@H](Cc1ccccc1)NC(=O)[C@H](N)CCCNC(=N)N)[C@@H](C)O)C(=O)N[C@H](C(=O)O)C(C)C [Peptide 134] (H-[dR]FTSELSRLAEGARLQRLLQGLV-OH) yielded an IC50 (human SCTR [3]; read-out: IC50, inhibition of β-arr2-GFP translocation (Table 3)) of 1580 ± 77 nM.

In the case of [dR]FTSELSRLREAARLQRLLQGLV (ends and bridges not checked) [peptide 136], the “cAMP production (GloSensor), agonist mode: intrinsic activity [% of secretin]” value (“cAMP production (GloSensor) … [% of secretin]” below) [4] is reported as 33.6%.

With [dR]FTSELSRLREGARLQRLLQALV (ends and bridges not checked) [peptide 144] the “cAMP production (GloSensor) … [% of secretin]” value [4] was 31.1%.

With [dR]FTSELSRLREGARLQRLLAGLV (ends and bridges not checked) [peptide 143] the “cAMP production (GloSensor) … [% of secretin]” value [4] was 27.5%.
